Results reported in ChEMBL document CHEMBL1201862, “PubChem BioAssay data set” (2004).
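1) Cells in 96-well plates. 2) Compound, 48 h, 5 concentrations. 3) Linear interpolation between surrounding doses. 4) Unreached endpoint = highest concentration. Here, GI50 denotes the concentration required for 50% inhibition of growth.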 The source made the active and inactive calls. Cut-off read from the data, not from the text of the source: active = GI50 up to about 1.1 µM and inactive = higher.

Legend:
Test in all cases: NCI tumour cell line growth inhibition, 48 h
[1] = tested on: MDA-MB-435
[2] = tested on: SR
[3] = tested on: UO-31
[4] = tested on: MOLT-4
[5] = tested on: SK-MEL-28
[6] = tested on: SK-MEL-5
[7] = tested on: UACC-62
[8] = tested on: SK-OV-3
[9] = tested on: U-251
[10] = tested on: SF-539
[11] = tested on: KM12
[12] = tested on: Hs-578T
[13] = tested on: HCT-15
[14] = tested on: LOX IMVI
[15] = tested on: HL-60
[16] = tested on: MDA-MB-231
[17] = tested on: EKVX
[18] = tested on: SNB-75
[19] = tested on: 786-0
[20] = tested on: HCC 2998

| SMILES | GI50 [1] | GI50 [2] | GI50 [3] | GI50 [4] | GI50 [5] | GI50 [6] | GI50 [7] | GI50 [8] | GI50 [9] | GI50 [10] | GI50 [11] | GI50 [12] | GI50 [13] [µM] | GI50 [14] | GI50 [15] | GI50 [16] | GI50 [17] | GI50 [18] | GI50 [19] | GI50 [20] |
| --- | --- | --- | --- | --- | --- | --- | --- | --- | --- | --- | --- | --- | --- | --- | --- | --- | --- | --- | --- | --- |
| Cc1cc(O)c2cc3c(O)c(O)ccc3cc2c1 | 3.63 µM (inactive) | 0.618 µM (active) | 0.7 µM (active) | 1.03 µM (active) | 9.51 µM (inactive) | 0.243 µM (active) | 1.52 µM (inactive) | 0.774 µM (active) | 0.42 µM (active) | 0.822 µM (active) | 0.561 µM (active) | 0.465 µM (active) | 1.2 | 1.35 µM (inactive) | 1.73 µM (inactive) | 1.25 µM (inactive) | 2.12 µM (inactive) | 0.488 µM (active) | 3.95 µM (inactive) | 0.817 µM (active) |
| CC(C)(C)c1cc(C2COC(=O)COCC(=O)OCCOCCOCCO2)cc(C(C)(C)C)c1O (stereo not given) | 20.5 µM (inactive) | 58.1 µM (inactive) | 18.6 µM (inactive) | > 100 µM (inactive) | 19.2 µM (inactive) | > 100 µM (inactive) | 27.2 µM (inactive) | 24.9 µM (inactive) | 34.3 µM (inactive) | 45.5 µM (inactive) | > 100 µM (inactive) | 17.9 µM (inactive) | > 100 | 31 µM (inactive) | > 31.6 µM (inactive) | 44.6 µM (inactive) | > 75.7 µM (inactive) | 16.1 µM (inactive) | 21.4 µM (inactive) | 14.5 µM (inactive) |
| Clc1ccc(/C=C/c2nc3ccccc3s2)cc1Cl | > 100 µM (inactive) | > 100 µM (inactive) | 22.1 µM (inactive) | > 100 µM (inactive) | > 100 µM (inactive) | 27.2 µM (inactive) | 59.2 µM (inactive) | 50.1 µM (inactive) | 25.7 µM (inactive) | 91.8 µM (inactive) | 81.1 µM (inactive) | 23.7 µM (inactive) | > 100 | 1.42 µM (inactive) | 82 µM (inactive) | 16.2 µM (inactive) | 51.8 µM (inactive) | 12.8 µM (inactive) | 15 µM (inactive) | 97.3 µM (inactive) |
| CN(/N=C/c1ccc(Cl)c(Cl)c1)C1=NCCCCN1 | 16.3 µM (inactive) | 41.3 µM (inactive) | – | 21.8 µM (inactive) | – | 14.6 µM (inactive) | 23 µM (inactive) | 53.3 µM (inactive) | 26.6 µM (inactive) | 29.3 µM (inactive) | 19.6 µM (inactive) | 61 µM (inactive) | 26.2 | 13.2 µM (inactive) | 19.3 µM (inactive) | 32 µM (inactive) | > 100 µM (inactive) | 50.2 µM (inactive) | 20.6 µM (inactive) | 24.9 µM (inactive) |
| CC(C)(C)N1CC1CNC(=O)C(=O)NCC1CN1C(C)(C)C (stereo not given) | 38.8 µM (inactive) | 0.601 µM (active) | 6.61 µM (inactive) | 1.57 µM (inactive) | 5.42 µM (inactive) | 16.7 µM (inactive) | 2.18 µM (inactive) | 3.69 µM (inactive) | 3.05 µM (inactive) | 2.94 µM (inactive) | 4.74 µM (inactive) | 91 µM (inactive) | 3.74 | 8.24 µM (inactive) | 0.411 µM (active) | 63.4 µM (inactive) | 14.2 µM (inactive) | 4.32 µM (inactive) | 1.4 µM (inactive) | 3.16 µM (inactive) |
| CCCC[C@@H]1CCN2C[C@@H](O)[C@@H](O)[C@@H]2[C@H]1O | > 100 µM (inactive) | > 100 µM (inactive) | > 100 µM (inactive) | > 100 µM (inactive) | > 100 µM (inactive) | > 100 µM (inactive) | > 100 µM (inactive) | > 100 µM (inactive) | > 100 µM (inactive) | > 100 µM (inactive) | > 100 µM (inactive) | > 100 µM (inactive) | > 100 | > 100 µM (inactive) | > 100 µM (inactive) | > 100 µM (inactive) | > 100 µM (inactive) | 89.9 µM (inactive) | > 100 µM (inactive) | > 100 µM (inactive) |
| CSc1ccc(/C=C/C(=O)c2nc3ccccc3[nH]2)cc1 | 6.22 µM (inactive) | 2.35 µM (inactive) | 3.66 µM (inactive) | 3.02 µM (inactive) | 31.6 µM (inactive) | 21.2 µM (inactive) | 14.2 µM (inactive) | 27.5 µM (inactive) | – | 4.45 µM (inactive) | 14.5 µM (inactive) | 37.2 µM (inactive) | 11.8 | 14.5 µM (inactive) | 12.1 µM (inactive) | 10 µM (inactive) | 17.8 µM (inactive) | 13.2 µM (inactive) | 12.7 µM (inactive) | 10.7 µM (inactive) |
| [O-][S+](C(c1ccccc1)=P(c1ccccc1)(c1ccccc1)c1ccccc1)c1ccc(Cl)cc1 (stereo not given) | 11.7 µM (inactive) | 19.5 µM (inactive) | 46.1 µM (inactive) | 29.1 µM (inactive) | 22 µM (inactive) | 12.1 µM (inactive) | – | 24.4 µM (inactive) | 21.2 µM (inactive) | 60 µM (inactive) | 14.2 µM (inactive) | 19.8 µM (inactive) | 34.9 | 20.6 µM (inactive) | 11.5 µM (inactive) | 19.3 µM (inactive) | 27.3 µM (inactive) | 60.4 µM (inactive) | 30.8 µM (inactive) | 28.4 µM (inactive) |
| Oc1cc(-c2ccccc2)cn2c1nc1ccccc12 | 0.189 µM (active) | 3.21 µM (inactive) | 2.64 µM (inactive) | 3.44 µM (inactive) | 4.31 µM (inactive) | 0.476 µM (active) | 0.33 µM (active) | 1.09 µM (active) | 2.51 µM (inactive) | 2.59 µM (inactive) | 1.5 µM (inactive) | 2.19 µM (inactive) | 0.643 | 1.12 µM (active) | 0.482 µM (active) | 0.382 µM (active) | > 94.2 µM (inactive) | > 36.3 µM (inactive) | 3.21 µM (inactive) | 4.68 µM (inactive) |
| Nn1c(Cc2ccc([N+](=O)[O-])cc2)n[nH]c1=O | > 100 µM (inactive) | > 100 µM (inactive) | > 100 µM (inactive) | > 100 µM (inactive) | > 100 µM (inactive) | > 100 µM (inactive) | > 100 µM (inactive) | > 100 µM (inactive) | > 100 µM (inactive) | > 100 µM (inactive) | > 100 µM (inactive) | > 100 µM (inactive) | > 100 | > 100 µM (inactive) | > 100 µM (inactive) | > 100 µM (inactive) | > 100 µM (inactive) | > 100 µM (inactive) | > 100 µM (inactive) | > 100 µM (inactive) |
| O=C(/C=C(\N=P(c1ccccc1)(c1ccccc1)c1ccccc1)C(F)(F)C(F)(F)C(F)(F)C(F)(F)C(F)(F)C(F)(F)C(F)(F)F)c1ccccc1 | > 100 µM (inactive) | > 100 µM (inactive) | > 100 µM (inactive) | > 100 µM (inactive) | > 100 µM (inactive) | > 100 µM (inactive) | > 100 µM (inactive) | > 100 µM (inactive) | > 100 µM (inactive) | > 100 µM (inactive) | > 100 µM (inactive) | > 100 µM (inactive) | > 100 | > 100 µM (inactive) | > 100 µM (inactive) | > 10 µM (inactive) | – | > 100 µM (inactive) | > 100 µM (inactive) | > 100 µM (inactive) |
